Article PMC10807611 (Cancer chemotherapy and pharmacology, 2023)

Assays:
[1] = system: patients in the registration trial; settings: package insert; cited from earlier work
[2] = system: patients with relapsed/refractory AML or MDS; settings: days 1–5 and 8–12 in combination with bortezomib; cited from earlier work
[3] = Plasma pharmacokinetics on cycle 1 day 1; type: in vivo; settings: human

## O=C(/C=C/c1cccc(S(=O)(=O)Nc2ccccc2)c1)NO [Belinostat, belinostat]
[1]
  Patients with QTc prolongation, all grades: 11%
[2]
  Maximum tolerated dose (MTD): 1000 mg/m^2
[3]; plasma, iv, 800 mg/m2
  clearance: 643 mL/min
[3]; plasma, iv, 1000 mg/m2
  Tmax: 0.4 h
  clearance: 657 mL/min

## C=CCn1c(=O)c2cnc(Nc3ccc(N4CCN(C)CC4)cc3)nc2n1-c1cccc(C(C)(C)O)n1 [Adavosertib, adavosertib]
[3]; in vivo, Cmax concentrations
  Cmax: ~500 nM
[3]; in vivo, po
  V/F: 784.6 ± 204.3 L
[3]; in vivo, po, 225 mg
  Cl/F: 57.0 ± 13.6 L/h
  Tmax: 3 h
[3]; in vivo, po, 225 mg, AUCINF
  AUC(0-inf): 7.41 µM·h
[3]; in vivo, po, 225 mg, T1/2
  half-life: 9.7 ± 1.93 h

## O=C(/C=C/c1cccc(S(=O)(=O)Nc2ccccc2)c1)NO[C@@H]1O[C@H](C(=O)O)[C@@H](O)[C@H](O)[C@H]1O [Belinostat glucuronide, belinostat glucuronide]
[3]; in vivo, iv, 800 mg/m2
  AUCINF: 396.0 ± 151.1 (6) μM·h
  T1/2: 3.51 ± 0.95 (6) h
[3]; in vivo, iv, 1000 mg/m2
  AUCINF: 668.6 ± 452.2 (4) μM·h
  T1/2: 4.41 ± 1.30 (4) h
